Results reported in publication PMC9496346, “Controversial Role of Transferrin in the Transport of Ruthenium Anticancer Drugs” (Biomolecules, 2022).

System: T1, recombinant human transferrin receptor 1 (TfR1)
T1 construct: extracellular domain (Cyst89-Phe760), (His)6-tagged at the N-terminus; purchased Sino Biological, Beijing, China (TfR1); Sigma (human serum, Cat. No. H4522, as source of Tf) 11020-H07H
Test: BLI of Tf–TfR1 binding in dilute human serum pre-treated with metal complexes
Conditions: serum incubated with 100 μM Ru complex or 60 μM Fe(III) as citrate
Protocol: The effects of Ru complexes on the Tf cycle were determined by BLI using previously developed protocols. The instrument used was a single-channel BLItz analyser (ForteBio, Menlo Park, CA, USA) with a tube holder (250 µL solution volume) and Ni(II)–nta coated optical probes held at 295 ± 1 K. Measurements used the Advanced Kinetics mode. […] Solutions of metal–Tf adducts (typical final Tf concentrations 150 nM or 1.0 µM) were prepared in the binding buffer (Section 2.1). The pH 7.4 binding buffer was used for Tf binding and dissociation from the probe, and the pH 5.6 buffer (Section 2.1) was used to mimic the endosomal step of the Tf cycle. Metal–Tf solutions (A1–A9 in Table 1) were diluted 100–400-fold, cell culture media were diluted 30-fold, and human serum samples were diluted 200-fold with the binding buffer immediately before the BLI measurements. All BLI data were background corrected by using data from buffer only runs with the same TfR1-loaded optical probe. Consistent BLI results were obtained in at least two independent measurements, using different probes and different batches of Tf solutions. Calculations of the Tf–TfR1 binding constants were performed using the 1:1 binding model (BLItz software, Version 1.1, Forte-Bio 2013), which can be used as a reasonable approximation of the physiological 2:2 Tf–TfR1 binding mechanism at low Tf concentrations. […]
(b) BLI response curves for dilute human serum samples in the presence or absence of metal complexes. Intact commercial human serum (Sigma H4522) was incubated with Fe(III)-citrate (60 µM) or with Ru complexes (100 µM) for 4 h at 310 K, then diluted 200-fold (to [Tf] ~ 150 nM) with the binding buffer (20 mM HEPES, 25 mM NaHCO3, 140 mM NaCl, pH = 7.4), and analyzed with the TfR1-loaded BLI probe. Designations of the steps in Tf cycle (A–D) correspond to those in Figure 1d-f, main text. Calculated KD values (1:1 binding model, BLItz software) were as follows: 8.0 nM (serum + Fe(III) citrate); or 28 ± 2 nM (serum in the presence or absence of Ru complexes). Typical anticancer Ru complexes, NAMI-A, KP1019 and RAPTA-C, were synthesized and characterized previously in the Lay group.
(1 picture or pasted object on this page, not shown here)

**Q.** `[Cl-].[Cl-].[Cl-].[Cl-].[Ru+3].c1ccc2[nH][nH+]cc2c1.c1ccc2[nH]ncc2c1.c1ccc2[nH]ncc2c1` [KP1019, (IndH)[Ru^IIICl4(Ind)2]] was tested. Which “Effect on Tf–TfR1 binding in whole human serum” value did it give?
**A.** did not have any effect
